Experimental data: US20230159510A1, “NOVEL PRMT5 INHIBITORS” (AMGEN INC., priority 2020, published 2023)

Experiments:
[1] = system: HCT116 MTAP null cells; test: HCT116 proliferation assay, MTAP null cells (CellTiter-Glo, 6 days); format: cell-based; conditions: HCT116-MTAP null, 144 h, read-out: Protif_ HCT116-MTAP null IC50
Method in brief: (§1)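 Compound titrations (top dose 1 or 10 µM, 1:3 dilution, 8 or 9 concentrations) and a DMSO control were applied to cells cultured overnight beforehand in RPMI 1640 with 10% FBS at 37° C, 5% CO2; viability was scored from luminescence.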

[2] = target: PRMT5/MEP50 (Homo sapiens, UniProt O14744); test: MTase-Glo methyl transferase assay, Method A (Histone H4 peptide, 1 µM MTA, 24 h pre-incubation); format: biochemical; set-up: made in house; conditions: read-out: PRMT5 MTase Glo Ki (nM, Meth. A)
Method in brief: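 Luminescent SAH detection (MTase-Glo) after a 2 h room-temperature methylation of 1 µM biotinylated H4 (1-21) peptide by 10 nM PRMT5/MEP50 with 5 µM SAM, in 50 mM Tris pH 8.0.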

[3] = system: HCT116 WT cells; test: HCT116 proliferation assay, WT cells (CellTiter-Glo, 6 days); format: cell-based; conditions: Homo sapiens, HCT-116, 144 h, read-out: Prolif_HCT116-WT IC50
Method in brief: as §1

PRMT5/MEP50, sequence (O14744 whole entry): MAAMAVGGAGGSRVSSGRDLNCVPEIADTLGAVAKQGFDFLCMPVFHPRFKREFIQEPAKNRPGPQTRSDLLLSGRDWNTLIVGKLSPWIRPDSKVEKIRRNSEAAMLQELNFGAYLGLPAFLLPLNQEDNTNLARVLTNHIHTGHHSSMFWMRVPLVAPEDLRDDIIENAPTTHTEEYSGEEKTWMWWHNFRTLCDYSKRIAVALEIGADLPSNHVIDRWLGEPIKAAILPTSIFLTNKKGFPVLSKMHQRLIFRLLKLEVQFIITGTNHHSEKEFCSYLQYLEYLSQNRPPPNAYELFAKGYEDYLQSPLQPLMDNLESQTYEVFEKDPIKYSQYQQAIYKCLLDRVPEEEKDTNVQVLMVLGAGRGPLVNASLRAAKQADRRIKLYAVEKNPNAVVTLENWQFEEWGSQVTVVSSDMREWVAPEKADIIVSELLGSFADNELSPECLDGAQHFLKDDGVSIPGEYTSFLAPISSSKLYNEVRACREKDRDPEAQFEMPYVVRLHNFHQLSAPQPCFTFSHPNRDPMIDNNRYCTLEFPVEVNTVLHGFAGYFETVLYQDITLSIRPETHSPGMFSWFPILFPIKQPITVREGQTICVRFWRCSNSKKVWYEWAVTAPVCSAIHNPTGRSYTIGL
PRMT5/MEP50, sequence (Q9BQA1 whole entry partner): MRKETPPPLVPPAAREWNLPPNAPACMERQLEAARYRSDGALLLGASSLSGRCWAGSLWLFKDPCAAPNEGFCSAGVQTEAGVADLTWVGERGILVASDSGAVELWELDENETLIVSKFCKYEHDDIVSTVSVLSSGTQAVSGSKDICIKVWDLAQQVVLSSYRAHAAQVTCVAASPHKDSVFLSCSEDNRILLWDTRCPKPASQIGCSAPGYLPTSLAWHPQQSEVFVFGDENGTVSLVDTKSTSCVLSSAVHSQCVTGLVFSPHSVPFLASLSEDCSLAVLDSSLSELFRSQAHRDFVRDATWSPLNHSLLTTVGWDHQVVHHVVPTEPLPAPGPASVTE

| SMILES | IC50 [1] | Ki [2] | IC50 [3] |
| --- | --- | --- | --- |
| Cc1cc2cc(C(=O)N(Cc3ccc(C(F)(F)F)cn3)[C@@H]3CCCc4nccnc43)ccc2nc1N (single isomer, unassigned) [Example 521] | 12 nM | 0.01 nM | 78 nM |
| Cc1cc2cc(C(=O)N(Cc3ccncc3)Cc3ccc(C(F)(F)F)cn3)ccc2nc1N [Example 342, 2-amino-3-methyl-N-(4-pyridinylmethyl)-N-((5-(trifluoromethyl)-2-pyridinyl)methyl)-6-quinolinecarboxamide] | 730 nM | 2.72 nM | > 10000 nM |
| Cc1cc(CN(Cc2ccc(C(F)(F)F)cn2)C(=O)c2cc3cc(C)c(N)nc3cc2F)no1 [Example 316, 2-amino-7-fluoro-3-methyl-N-((5-methyl-1,2-oxazol-3-yl)methyl)-N-((5-(trifluoromethyl)-2-pyridinyl)methyl)-6-quinolinecarboxamide] | 534 nM | 1.03 nM | 10400 nM |
| Cc1cc2cc(C(=O)N(Cc3ccc(C(F)(F)F)cn3)[C@H](C)c3cnccn3)cnc2nc1N [Example 538, 7-amino-6-methyl-N-((1R)-1-(2-pyrazinyl)ethyl)-N-((5-(trifluoromethyl)-2-pyridinyl)methyl)-1,8-naphthyridine-3-carboxamide] | 732 nM | 0.68 nM | > 10000 nM |
| Cc1cc2cc(C(=O)N(Cc3ccc(C(F)(F)F)cn3)Cc3c(F)cccc3F)ccc2nc1N [Example 344, 2-amino-N-(2,6-difluorobenzyl)-3-methyl-N-((5-(trifluoromethyl)-2-pyridinyl)methyl)-6-quinolinecarboxamide] | 73 nM | 0.1 nM | 1800 nM |
| CC(=O)N1CC=C(c2ccc(CN(C(=O)c3ccc4nc(N)c(C)cc4c3)[C@H](C)c3ncccn3)nc2)CC1 [Example 548, N-((1′-acetyl-1’,2’,3’,6′-tetrahydro[3,4′-bipyridin]-6-yl)methyl)-2-amino-3-methyl-N-((1R)-1-(2-pyrimidinyl)ethyl)-6-quinolinecarboxamide] | 88 nM | 0.1 nM | 2080 nM |
| C[C@H](c1ncccn1)N(Cc1ccc(C#N)cn1)C(=O)c1ccc2nc(N)c(Cl)cc2c1 [Example 408, 2-amino-3-chloro-N-((5-cyano-2-pyridinyl)methyl)-N-((1R)-1-(2-pyrimidinyl)ethyl)-6-quinolinecarboxamide] | 597 nM | 0.13 nM | > 10000 nM |
| Cc1cc2cc(C(=O)N(Cc3ccc(C(F)(F)F)cn3)[C@H](C)c3cnccn3)ccc2nc1N (single isomer, unassigned) [Example 482] | 106 nM | 0.1 nM | 4320 nM |
| Cc1cc2cc(C(=O)N(Cc3ccc(C(F)(F)F)nn3)[C@H](C)c3ncccn3)ccc2nc1N (single isomer, unassigned) [Example 488] | 35 nM | 0.1 nM | 1280 nM |
| Cc1cc2cc(C(=O)N(Cc3ccc(C(F)(F)F)cn3)[C@H](C)c3ncc(F)cn3)ccc2nc1N (single isomer, unassigned) [Example 528] | 58 nM | 0.14 nM | 899 nM |
| Cc1cc2cc(C(=O)N(Cc3ccncn3)Cc3ccc(C(F)(F)F)cn3)ccc2nc1N [Example 335, 2-amino-3-methyl-N-(4-pyrimidinylmethyl)-N-((5-(trifluoromethyl)-2-pyridinyl)methyl)-6-quinolinecarboxamide] | 727 nM | 0.73 nM | > 10000 nM |
| Cc1cc2cc(C(=O)N(Cc3ccc(C(F)(F)F)nn3)[C@@H]3CCOc4cccnc43)ccc2nc1N (single isomer, unassigned) [Example 520] | 24 nM | 0.04 nM | 737 nM |
| Cc1cc2cc(C(=O)N(Cc3ccc(Br)cn3)[C@H](C)c3ncccn3)ccc2nc1N [Example 402] | 15 nM | 0.04 nM | 526 nM |
| Cc1cc2cc(C(=O)N(Cc3ccc(C(F)F)cn3)[C@H](C)c3cnn(C)n3)ccc2nc1N (single isomer, unassigned) [Example 532] | 45 nM | 0.02 nM | 894 nM |
| Cc1cc2cc(C(=O)N(Cc3ccc(C(F)(F)F)cn3)[C@H](C)c3ncn(C)n3)c(F)cc2nc1N (single isomer, unassigned) [Example 497] | 35 nM | 0.19 nM | 462 nM |
| [2H]C([2H])([2H])c1cc2cc(C(=O)N(Cc3ccc(C#N)cn3)[C@H](C)c3ncccn3)ccc2nc1N [Example 441, (R)-2-amino-N-((5-cyanopyridin-2-yl)methyl)-3-(methyl-d3)-N-(1-(pyrimidin-2-yl)ethyl)quinoline-6-carboxamide] | 107 nM | 0.06 nM | 2810 nM |

| SMILES | IC50 [1] | Ki [2] | IC50 [3] |
| --- | --- | --- | --- |
| Cc1cc2cc(C(=O)N(Cc3ncc(C(F)(F)F)s3)[C@H](C)c3ncccn3)ccc2nc1N (single isomer, unassigned) [Example 492] | 175 nM | 0.22 nM | 3390 nM |
| Cc1cc2cc(C(=O)N(Cc3cccc(C(F)(F)F)n3)[C@H](C)c3ncccn3)ccc2nc1N (single isomer, unassigned) [Example 526] | 323 nM | 0.33 nM | > 10000 nM |
| Cc1cc2nc(N)c(C)cc2cc1C(=O)N(Cc1ccc(C(F)(F)F)cn1)CC(C)C [Example 539, 2-amino-N-isobutyl-3,7-dimethyl-N-((5-(trifluoromethyl)pyridin-2-yl)methyl)quinoline-6-carboxamide] | 328 nM | 0.12 nM | 7010 nM |
| C[C@H](c1ncccn1)N(Cc1ccc(C(F)(F)F)cn1)C(=O)c1cc2cc(Cl)c(N)nc2cn1 [Example 422, 2-amino-3-chloro-N-((1R)-1-(2-pyrimidinyl)ethyl)-N-((5-(trifluoromethyl)-2-pyridinyl)methyl)-1,7-naphthyridine-6-carboxamide] | 360 nM | 0.2 nM | > 10000 nM |
| Cc1cc2cc(C(=O)N(Cc3ccc(N4CC5(COC5)C4)cn3)[C@H](C)c3ncccn3)ccc2nc1N [Example 556, (R)-N-((5-(2-oxa-6-azaspiro[3.3]heptan-6-yl)pyridin-2-yl)methyl)-2-amino-3-methyl-N-(1-(pyrimidin-2-yl)ethyl)quinoline-6-carboxamide] | 342 nM | 4.1 nM | 10100 nM |
| Cc1cc2cc(C(=O)N(Cc3ccc(C(F)(F)F)cc3)Cc3ncccc3F)ccc2nc1N [Example 328, 2-amino-N-((3-fluoro-2-pyridinyl)methyl)-3-methyl-N-(4-(trifluoromethyl)benzyl)-6-quinolinecarboxamide] | 178 nM | 0.41 nM | 4640 nM |
| CC[C@H](c1ncccn1)N(Cc1cnc(C(F)(F)F)cn1)C(=O)c1ccc2nc(N)c(C)cc2c1 (single isomer, unassigned) [Example 516] | 155 nM | 0.14 nM | 3640 nM |
| Cc1cc2cc(C(=O)N(Cc3ccc(Br)cn3)[C@@H]3CCCN(C)C3=O)ccc2nc1N (single isomer, unassigned) [Example 448] | 238 nM | 0.32 nM | 5230 nM |
| C[C@H](c1ncccc1F)N(Cc1ccc(C(F)(F)F)nn1)C(=O)c1cnc2nc(N)c(Br)cc2c1 [Example 397, 7-amino-6-bromo-N-((1R)-1-(3-fluoro-2-pyridinyl)ethyl)-N-((6-(trifluoromethyl)-3-pyridazinyl)methyl)-1,8-naphthyridine-3-carboxamide] | 286 nM | 0.23 nM | 7960 nM |
| C[C@H](c1ncccc1F)N(Cc1ccc(C(F)(F)F)cn1)C(=O)c1cnc2nc(N)c(Br)cc2c1 [Example 388, 7-amino-6-bromo-N-((1R)-1-(3-fluoro-2-pyridinyl)ethyl)-N-((5-(trifluoromethyl)-2-pyridinyl)methyl)-1,8-naphthyridine-3-carboxamide] | 137 nM | 0.15 nM | 4880 nM |
| C[C@H](c1ccc(F)cc1F)N(Cc1ccc(C(F)(F)F)cn1)C(=O)c1cnc2nc(N)c(Br)cc2c1 [Example 346, 7-amino-6-bromo-N-((1R)-1-(2,4-difluorophenyl)ethyl)-N-((5-(trifluoromethyl)-2-pyridinyl)methyl)-1,8-naphthyridine-3-carboxamide] | 81 nM | 0.04 nM | 1580 nM |
| Cc1cc2cc(C(=O)N(Cc3cnc4ccccc4c3)[C@H](C)c3ncccn3)ccc2nc1N (single isomer, unassigned) [Example 447] | 673 nM | 5.51 nM | > 10000 nM |
| Cc1cc2cc(C(=O)N(Cc3ccc(F)cn3)Cc3ccc(C(F)(F)F)cn3)ccc2nc1N [Example 383, 2-amino-N-((5-fluoro-2-pyridinyl)methyl)-3-methyl-N-((5-(trifluoromethyl)-2-pyridinyl)methyl)-6-quinolinecarboxamide] | 434 nM | 2.06 nM | 5320 nM |
| C[C@H](c1ncccn1)N(Cc1ccc(C(F)F)cn1)C(=O)c1ccc2nc(N)c(Br)cc2c1 [Example 410, 2-amino-3-bromo-N-((5-(difluoromethyl)-2-pyridinyl)methyl)-N-((1R)-1-(2-pyrimidinyl)ethyl)-6-quinolinecarboxamide] | 88 nM | 0.04 nM | 5390 nM |
| COc1ccc(CN(C(=O)c2ccc3nc(N)c(Br)cc3c2)[C@H](C)c2ncccn2)nn1 [Example 411, 2-amino-3-bromo-N-((6-methoxy-3-pyridazinyl)methyl)-N-((1R)-1-(2-pyrimidinyl)ethyl)-6-quinolinecarboxamide] | 182 nM | 0.22 nM | > 10000 nM |
